Each block holds one compound with its values, some of them ahead of it.
Key:
[1] = system: refractory eosinophilic esophagitis; conditions: systemically administered, small case series; cited from earlier work
eotaxin-3 secretion = conditions: cells from eosinophilic esophagitis patients; cited from earlier work
[2] = UV/Vis spectroscopy of tofacitinib content and spectrum in the polymer film; assay type: physicochemical; conditions: citrate buffer, pH 4.0 with 20% methanol
Experimental: Further, the film was analyzed for the content of tofacitinib. To this end, 6 circular samples with a diameter of 1.9 cm (2.84 cm^2) were cut at random positions of the film and analyzed with a UV/Vis spectroscopy in a citrate buffer, pH 4.0 with 20% methanol. The absorption spectrum is shown in FIG. 10 in comparison to a reference sample (tofacitinib solved in citrate buffer, pH 4.0 with 20% methanol).

eosinophilic esophagitis = conditions: person, after 3 months of treatment; cited from earlier work
atopic dermatitis = conditions: placebo-controlled phase IIa study; cited from earlier work
[3] = system: refractory oral graft-versus-host disease; conditions: single case, cited from earlier work

Compound: Sc1ncnc2nc[nH]c12 [6-mercaptopurine]
efficacy in the treatment of refractory eosinophilic esophagitis [1]: efficient

Compound: NC(=O)c1cnc(NCCc2ccc(O)c(Cl)c2)nc1NCc1ccccc1 [AS1517499]
eotaxin-3 secretion by epithelial cells and fibroblasts (eotaxin-3 secretion): block eotaxin-3 secretion

stability of tofacitinib in the film (absorption spectrum versus reference sample) [2]: can be stably prepared in a film
Compound: C[C@@H]1CCN(C(=O)CC#N)C[C@@H]1N(C)c1ncnc2[nH]ccc12 [Tofacitinib, tofacitinib]
appearance of the esophagus (eosinophilic esophagitis): significantly improve the appearance of the esophagus
number of eosinophils found in esophageal biopsies (eosinophilic esophagitis): least number of eosinophils found in esophageal biopsies
results of topical treatment of atopic dermatitis (atopic dermatitis): convincing results

Compound: Cn1cnc([N+](=O)[O-])c1Sc1ncnc2nc[nH]c12 [azathioprine]
efficacy in the treatment of refractory eosinophilic esophagitis [1]: efficient
tolerability ([3]; additional topical administration): well tolerated
clinical benefit of additional topical administration ([3]; topically and systemically administered suspension): seemed to add some clinical benefit

Compound: Cc1oncc1C(=O)Nc1ccc(C(F)(F)F)cc1 [leflunomide]
eotaxin-3 secretion by epithelial cells and fibroblasts (eotaxin-3 secretion): block eotaxin-3 secretion

Reference: patent publication US20250367113A1, “DRUG DELIVERY SYSTEM COMPRISING AN ANTI-INFLAMMATORY AGENT OR A SALT THEREOF FOR THE APPLICATION TO ESOPHAGEAL MUCOUS MEMBRANES” (EsoCap AG, priority 2022, published 2025)
